Laboratory results reported in patent US6579855B1, “Adenovirus-mediated gene therapy” (priority 1998, dated 2003).

Assay: Clinical safety of gene transfer and GCV treatment (adverse effects, routine laboratory measurements)
Type: in vivo, human
Conditions: GCV 5 mg/kg/d intravenously, 14 days; only one patient, without symptoms
Method: All patients underwent craniotomy and tumour resection. The resection was as radical as possible under the microscope. The diagnosis of malignant glioma was confirmed by frozen sections at the time of the operation. After tumour resection, HSVtk retrovirus packaging cells (10^9 cells/10 ml) or adenoviruses (3×10^10 pfu/10 ml) were injected into the wall of the tumour cavity in 0.1-0.3 ml quantities, 10 mm deep, with 30-70 injections/patient. GCV treatment (5 mg/kg/d) was delivered intravenously through the subclavian vein twice a day for 14 days. The medication started 14 days or 5 days after the tumour resection and gene transfer in retrovirus or adenovirus patients, respectively. β-galactosidase gene was transferred to seven control group patients via a catheter which was stereotactically inserted into the tumour. The catheter was left in place until the tumour was resected in craniotomy. […]
Blood and urine samples were analyzed using routine methods before gene transfer, on the first postoperative day and weekly during hospitalization except for leucocyte differential count which was measured every second day during GCV medication. Anti-virus antibodies were measured before and two weeks after the gene transfer. […]

Nc1nc(O)c2ncn(COC(CO)CO)c2n1 [GCV, ganciclovir]
leukopenia during GCV treatment: mild and reversible leukopenia
